From patent US20130296441A1, “Anti-Obesity Properties of Pterostilbene” (priority 2012, published 2013)
Where two headings read alike, the source gives them in different places. Marks after values point to notes of the source that are not given here.

How the values were obtained:
[1] = system: male Wistar rats fed obesogenic diet high in sucrose and fat; assay: Body weight, food intake, adipose tissue and muscle weights in rats fed an obesogenic diet with pterostilbene for 6 weeks; format: in vivo, rat; conditions: for decrease in total adipose tissue mass: versus control; for Adipose Tissue Weight, Epididymal / Adipose Tissue Weight, Interscapular Brown / Adipose Tissue Weight, Mesenteric / Adipose Tissue Weight, Perirenal / Adipose Tissue Weight, Subcutaneous / Adipose Tissue Weight, Total Fat Depots / Body Weight Increase / Food Intake / Final Body Weight: mean ± SEM; for Final Body Weight: n = 9, in g
Experimental: (§1) The experiment was conducted with twenty seven male Wistar rats with an initial body weight of 180±2 grams purchased from Harlan Ibérica (Barcelona, Spain), and took place in accordance with the University of the Basque Country's guide for the care and use of laboratory animals (Reference protocol approval CUEID CEBA/30/2010). The rats were individually housed in polycarbonate metabolic cages (Techniplast Gazzada, Guguggiate, Italy) and placed in an air-conditioned room (22±2° C.) with a 12 h light-dark cycle. After a 6-day adaptation period, rats were randomly divided in 3 dietary groups of nine animals each, and fed on a commercial obesogenic diet, high in sucrose (20.0%) and fat (22.5%) (Harlan Iberica, TD.06415). Pterostilbene was added to the diet. Rats in the pterostilbene groups received 15 mg/kg body weight/d (PT15 group) or 30 mg/kg body weight/d (PT30 group). All animals had free access to food and water. Food intake and body weight were daily measured.
At the end of the 6-week experimental period, animals were sacrificed, under anaesthesia (chloral hydrate), by cardiac exsanguination. White adipose tissue from different anatomical locations (perirenal, epididymal, mesenteric and subcutaneous) and liver were dissected, weighed and immediately frozen.

[2] = in vivo; cited from earlier work
[3] = Serum and tissue levels of pterostilbene by GC-MS; format: in vivo, rat; conditions: for concentration at 6 weeks: male, Wistar, rat, oral
Experimental: as §1
Extraction of pterostilbene in the serum was according to published procedure (Kotani et al. 2003. J. Chromatogr. B. 788:269-275), with modifications. Serum from −80° C. storage was thawed on ice. To 50 μL serum was added 15 μL of β-glucuronidase (from E. coli, Type IX-A, Sigma-Aldrich, St. Louis, Mo., USA; 250 U/15 mL sodium phosphate buffer, 0.1M, pH 6.8) and 15 μL of sulfatase (from Abalone Entrails, Type VIII, Sigma-Aldrich, St. Louis, Mo., USA; 20 U/15 mL sodium phosphate buffer, 0.1M, pH 6.8), then vortex-mixed. This mixture was incubated for 20 hr at 37° C. while shaking at 750 rpm, cooled to room temperature, then partitioned with ethyl acetate (75 μL×3). The ethyl acetate layers were combined and dried under nitrogen. The dried sample was derivatized with 40 μL of N,O-bis[trimethylsilyl]-trifluoroacetamide: dimethyl-formamide (BSTFA:DMF, 1:1; Pierce Biotechnology, Inc., Rockford, Ill.), heated at 70° C. for 40 min and used for the analysis of pterostilbene by gas chromatography-mass spectrometry (GC-MS).
Pterostilbene in liver and muscle was extracted following published procedure (Hou et al. 2011. Planta Med. 77:455-460), with minor modifications. For liver, 100 mg fresh tissues were homogenized in 1 mL saline solution (0.9% NaCl in H2O). For muscle, 100 mg lyophilized tissue was homogenized in 1 mL sodium acetate buffer, pH 5. To the homogenates was added 300 μL enzyme solution (793.67 U/mL sulfatase and 666.66 U/mL β-glucuronidase in sodium acetate buffer, pH 5), vortex-mixed, and incubated at 37° C. for 16 hr while shaking at 750 rpm. To this mixture was added 100 μL of 0.1N HCl, then partitioned with ethyl acetate (800 μL×2). The ethyl acetate layers were combined, then dried under nitrogen. The dried sample was derivatized with BSTFA:DMF under the same conditions used for the analysis of pterostilbene in serum.
For the analysis of pterostilbene in epididymis and subcutaneous tissues, 100 mg of lyophilized tissue was homogenized in 300 μL of sodium acetate buffer, then sonicated for 30 min. To the homogenate was added 300 μl enzyme solution (793.67 U/mL sulfatase and 1333.33 U/mL β-glucuronidase in sodium acetate buffer, pH5) vortex-mixed, and incubated at 37° C., with shaking (750 rpm), for 16 hours. After incubation, 500 μl ice-cold acetonitrile was added, vortex-mixed for 1 min, then centrifuged at 800 rpm (Savant SpeedVac, model number SPD121P-120) for 20 min. The clear supernatant was collected, and again treated with 500 μl ice-cold acetonitrile, vortex-mixed and then centrifuged at 800 rpm for 20 min. The supernatant was then dried under a stream of nitrogen, then derivatized with BSTFA:DMF using the same conditions as in the analysis of pterostilbene in serum.
GC-MS analysis of pterostilbene in serum and tissues was performed using a J&W DB-5 capillary column (0.25 mm internal diameter, 0.25 μm film thickness, 30 m length; Agilent Technologies, Foster City, Calif.) on a JEOL GCMate II Instrument (JEOL USA Inc., Peabody, Mass.). […]

mice = mice fed 28 days at doses up to 3000 mg/kg body weight/d; cited from earlier work
[4] = PT15: 15 mg/kg body weight/d in diet
[5] = PT30: 30 mg/kg body weight/d in diet

COc1cc(/C=C/c2ccc(O)cc2)cc(OC)c1 [pterostilbene]
decrease in total adipose tissue mass ([1]; PT15: 15 mg/kg BW/d): 15.1% | Adipose Tissue Weight, Epididymal [1, 4]: 10.5 ± 0.9 g | Adipose Tissue Weight, Interscapular Brown [1, 4]: 1.01 ± 0.23 g | Adipose Tissue Weight, Mesenteric [1, 4]: 5.2 ± 0.4^ab g | Adipose Tissue Weight, Perirenal [1, 4]: 12.0 ± 1.1^ab g | Adipose Tissue Weight, Subcutaneous [1, 4]: 12.6 ± 1.2^b g | Adipose Tissue Weight, Total Fat Depots [1, 4]: 40.3 ± 3.0^b g | Body Weight Increase [1, 4]: 206 ± 9 g | Food Intake [1, 4]: 17.7 ± 0.5 g/day | Final Body Weight [1, 4]: 382 ± 5 | decrease in total adipose tissue mass ([1]; PT30: 30 mg/kg BW/d): 22.9% | Adipose Tissue Weight, Epididymal [1, 5]: 10.5 ± 1.1 g | Adipose Tissue Weight, Interscapular Brown [1, 5]: 0.75 ± 0.05 g | Adipose Tissue Weight, Mesenteric [1, 5]: 4.8 ± 0.5^b g | Adipose Tissue Weight, Perirenal [1, 5]: 11.2 ± 1.0^b g | Adipose Tissue Weight, Subcutaneous [1, 5]: 12.7 ± 1.6^b g | Adipose Tissue Weight, Total Fat Depots [1, 5]: 36.6 ± 3.5^b g | Body Weight Increase [1, 5]: 200 ± 6 g | Food Intake [1, 5]: 17.5 ± 0.3 g/day | Final Body Weight [1, 5]: 382 ± 5 | half-life [2]: approximately 2 hr | Muscle level of pterostilbene ([3]; PT15: 15 mg/kg body weight/d in diet, 6 weeks): Not Detected | concentration at 6 weeks ([3]; epididymis, PT15: 15 mg/kg body weight/d in diet, dry weight, n = 8, read-out: Epididymis level of pterostilbene): 10.9 ± 5.3 ng/g | concentration at 6 weeks ([3]; epididymis, PT30: 30 mg/kg body weight/d in diet, dry weight, n = 8, read-out: Epididymis level of pterostilbene): 30.7 ± 11 ng/g | concentration at 6 weeks ([3]; liver, PT15: 15 mg/kg body weight/d in diet, fresh weight, n = 8, read-out: Liver level of pterostilbene): 308 ± 117 ng/g | concentration at 6 weeks ([3]; liver, PT30: 30 mg/kg body weight/d in diet, fresh weight, n = 6, read-out: Liver level of pterostilbene): 726 ± 112 ng/g | concentration at 6 weeks ([3]; muscle, PT30: 30 mg/kg body weight/d in diet, dry weight, n = 8, read-out: Muscle level of pterostilbene): 9.1 ± 2 ng/g | concentration at 6 weeks ([3]; serum, PT15: 15 mg/kg body weight/d in diet, after glucuronidase/sulfatase hydrolysis, n = 8, read-out: Serum level of pterostilbene): 384 ± 54.7 ng/mL | concentration at 6 weeks ([3]; serum, PT30: 30 mg/kg body weight/d in diet, after glucuronidase/sulfatase hydrolysis, n = 6, read-out: Serum level of pterostilbene): 789 ± 246 ng/mL | concentration at 6 weeks ([3]; subcutaneous tissue, PT15: 15 mg/kg body weight/d in diet, dry weight, n = 7, read-out: Subcutaneous tissue level of pterostilbene): 20.5 ± 13.7 ng/g | concentration at 6 weeks ([3]; subcutaneous tissue, PT30: 30 mg/kg body weight/d in diet, dry weight, n = 7, read-out: Subcutaneous tissue level of pterostilbene): 35.4 ± 7.7 ng/g | toxic or adverse biochemical effects compared to controls (mice): no significant toxic or adverse biochemical effects
